SMILES strings stand for the structures. Where a name gives a salt, the structure may show the parent alone. Read-outs that look alike come from different tables or passages of the source.

Here are results for 15 compounds from patent publication US9452980B2, “Substituted benzamides” (Hoffmann-La Roche Inc., priority 2009, dated 2016).

Assay [1] deals with mouse TAAR1 (Mus musculus (Mouse), UniProt Q923Y8). In words: Radioligand binding assay on mouse TAAR1. Conditions: read-out: Ki (μM) mouse. As to the method:
(§1) For the construction of expression plasmids the coding sequences of human, rat and mouse TAAR1 were amplified from genomic DNA essentially as described by Lindemann et al.. The Expand High Fidelity PCR System (Roche Diagnostics) was used with 1.5 mM Mg^2+ and purified PCR products were cloned into pCR2.1-TOPO cloning vector (Invitrogen) following the instructions of the manufacturer. PCR products were subcloned into the pIRESneo2 vector (BD Clontech, Palo Alto, Calif.), and expression vectors were sequence verified before introduction in cell lines.
(§2) HEK293 cells (ATCC #CRL-1573) were cultured essentially as described by Lindemann et al. (2005). For the generation of stably transfected cell lines HEK293 cells were transfected with the pIRESneo2 expression plasmids containing the TAAR coding sequences (described above) with Lipofectamine 2000 (Invitrogen) according to the instructions of the manufacturer, and 24 hrs post transfection the culture medium was supplemented with 1 mg/ml G418 (Sigma, Buchs, Switzerland). After a culture period of about 10 d clones were isolated, expanded and tested for responsiveness to trace amines (all compounds purchased from Sigma) with the cAMP Biotrak Enzyme immunoassay (EIA) System (Amersham) following the non-acetylation EIA procedure provided by the manufacturer.
Radioligand Binding Assay on Mouse TAAR1
(§3) Membrane Preparation and Radioligand Binding.
(§4) HEK-293 cells stably expressing mouse TAAR1 were maintained at 37° C. and 5% CO2 in DMEM high glucose medium, containing fetal calf serum (10%, heat inactivated for 30 min at 56° C.), penicillin/streptomycin (1%), and 375 μg/ml geneticin (Gibco). Cells were released from culture flasks using trypsin/EDTA, harvested, washed twice with ice-cold PBS (without Ca^2+ and Mg^2+), pelleted at 1,000 rpm for 5 min at 4° C., frozen and stored at −80° C. Frozen pellets were suspended in 20 ml HEPES-NaOH (20 mM, pH 7.4) containing 10 mM EDTA and homogenized with a Polytron (PT 6000, Kinematica) at 14,000 rpm for 20 s. The homogenate was centrifuged at 48,000×g for 30 min at 4° C. Subsequently, the supernatant was removed and discarded, and the pellet resuspended in 20 ml HEPES-NaOH (20 mM, pH 7.4) containing 0.1 mM EDTA using the Polytron (20 s at 14,000 rpm). This procedure was repeated and the final pellet resuspended in HEPES-NaOH containing 0.1 mM EDTA and homogenized using the Polytron. Typically, aliquots of 2 ml membrane portions were stored at −80° C. With each new membrane batch the dissociation constant (Kd) was determined via a saturation curve. […] Nonspecific binding was defined as the amount of ^3[H]—(S)-4-[(ethyl-phenyl-amino)-methyl]-4,5-dihydro-oxazol-2-ylamine bound in the presence of 10 μM unlabeled ligand. All compounds were tested at a broad range of concentrations (10 pM to 10 μM) in duplicates. […] The 96 deep well plates were incubated for 1 hr at 4° C. Incubations were terminated by rapid filtration through Unifilter-96 plates (Packard Instrument Company) and glass filters GF/C (Perkin Elmer) presoaked for 1 hr in polyethylenimine (0.3%) and washed 3 times with 1 ml of cold binding buffer. After addition of 45 μl of Microscint 40 (PerkinElmer) the Unifilter-96 plate was sealed and after 1 hr the ratioactivity counted using a TopCount Microplate Scintillation Counter (Packard Instrument Company).

For assay [2], the target named is rat TAAR1 (Rattus norvegicus (Rat), UniProt Q923Y9). Put plainly: Radioligand binding assay on rat TAAR1. Conditions: read-out: Ki (μM) rat. As to the method:
as §1, §2
Radioligand Binding Assay on Rat TAAR1
as §3
as §4, with “rat” for “mouse”

The mark [3] stands for this setting: mouse TAAR1, HEK-293 membranes, first value of cell mouse/rat.
[4] abbreviates: rat TAAR1, HEK-293 membranes, second value of cell mouse/rat.

Sequence of mouse TAAR1 (Q923Y8 whole entry): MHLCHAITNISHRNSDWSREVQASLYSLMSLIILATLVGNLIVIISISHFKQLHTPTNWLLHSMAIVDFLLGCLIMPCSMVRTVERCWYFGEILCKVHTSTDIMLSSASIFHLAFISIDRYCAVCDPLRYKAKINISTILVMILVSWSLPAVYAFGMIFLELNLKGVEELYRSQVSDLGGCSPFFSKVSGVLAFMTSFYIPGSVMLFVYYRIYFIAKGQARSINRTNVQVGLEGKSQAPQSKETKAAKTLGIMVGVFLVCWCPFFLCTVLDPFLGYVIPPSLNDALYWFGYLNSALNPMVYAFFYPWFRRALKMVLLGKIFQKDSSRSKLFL
Sequence of rat TAAR1 (Q923Y9 whole entry): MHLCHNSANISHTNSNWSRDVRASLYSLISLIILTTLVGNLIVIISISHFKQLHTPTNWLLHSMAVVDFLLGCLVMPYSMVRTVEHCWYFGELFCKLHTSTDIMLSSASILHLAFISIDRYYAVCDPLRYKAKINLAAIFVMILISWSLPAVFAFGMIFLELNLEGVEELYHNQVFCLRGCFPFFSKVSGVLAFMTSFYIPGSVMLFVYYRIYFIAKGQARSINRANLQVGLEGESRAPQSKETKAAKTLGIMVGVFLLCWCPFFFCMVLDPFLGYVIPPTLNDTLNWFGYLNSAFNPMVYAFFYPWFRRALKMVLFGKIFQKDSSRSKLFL

As to `O=C(Nc1ccc(C2CNCCO2)cc1)Nc1cccc(Cl)c1` (racemic) [Example 303, (RS)-1-(3-Chlorophenyl)-3-(4-(morpholin-2-yl)phenyl)urea hydrochloride], the Ki in assay [1] (setting [3]) worked out at 0.002 µM; in assay [2] (setting [4]) it was 0.0005 µM.
`O=C(Nc1ccc(C2CCNC2)cc1)c1cnc(Cl)cn1` (racemic) [Example 163, (RS)-5-Chloro-N-(4-(pyrrolidin-3-yl)phenyl)pyrazine-2-carboxamide hydrochloride]: the Ki in assay [1] (setting [3]) is 0.0573 µM; in assay [2] (setting [4]) it was 0.0121 µM.
In the case of `O=C(Nc1ccc([C@@H]2CNCCO2)cc1)c1cc(Cl)nc(Cl)c1` [Example 270, (R)-2,6-Dichloro-N-(4-(morpholin-2-yl)phenyl)isonicotinamide hydrochloride], the values for the inhibition constant (Ki) in assay [1] and in assay [2] were 0.0049 µM and 0.0045 µM, respectively.
In the case of `O=C(Nc1ccc(C2CNCCO2)cc1)c1cc(Cl)nc(Cl)c1` (racemic) [Example 221, (RS)-2,6-Dichloro-N-(4-(morpholin-2-yl)phenyl)isonicotinamide hydrochloride], the Ki is 0.005 µM in assay [1] and 0.0037 µM in assay [2].
`O=C(Nc1ccc(C2CCCNC2)cc1)c1ccc(Cl)cc1` (racemic) [Example 58, (RS)-4-Chloro-N-(4-piperidin-3-yl-phenyl)-benzamide hydrochloride]: the inhibition constant (Ki) in assay [1] (setting [3]) was determined as 0.0007 µM; in assay [2] (setting [4]) it was 0.0022 µM.
For `CCC(C(=O)Nc1ccc(C2CCNC2)cc1)c1ccccc1` (racemic) [Example 38, (RS)-2-Phenyl-N—((RS)-4-pyrrolidin-3-yl-phenyl)-butyramide], the Ki came out at 0.0407 µM in assay [1] (setting [3]) and 0.0606 µM in assay [2] (setting [4]).
As to `Cc1ccc(C(=O)Nc2ccc(C3CNCCO3)cc2)cc1` (racemic) [Example 189, (RS)-4-Methyl-N-(4-(morpholin-2-yl)phenyl)benzamide hydrochloride], the Ki in assay [1] (setting [3]) stood at 0.0343 µM; in assay [2] (setting [4]) it was 0.0016 µM.
For the compound `Cc1cccc(C(=O)Nc2ccc(C3CNCCO3)cc2)c1` (racemic) [Example 277, (RS)-3-Methyl-N-(4-(morpholin-2-yl)phenyl)benzamide hydrochloride], the Ki in assay [1] stood at 0.0472 µM; in assay [2] (setting [4]) it was 0.0036 µM.
For the compound `O=C(Nc1ccc([C@H]2CCCNC2)cc1)c1ccc(Cl)c(Cl)c1` [Example 150, 3,4-Dichloro-N—((R)-4-piperidin-3-yl-phenyl)-benzamide hydrochloride], the inhibition constant Ki turned out to be 0.002 µM in assay [1] and 0.0004 µM in assay [2] (setting [4]).
Regarding `CC(C(=O)Nc1ccc(C2CCNC2)cc1)c1cccc(C#N)c1` (racemic) [Example 68, (RS)-2-(3-Cyano-phenyl)-N—((RS)-4-pyrrolidin-3-yl-phenyl)-propionamide], the Ki was 0.147 µM in assay [1] (setting [3]) and 0.102 µM in assay [2] (setting [4]).
As for `O=C(Nc1ccc(C2CCNC2)cc1)c1ccc(C(F)(F)F)cc1` (racemic) [Example 18, (RS)—N-(4-Pyrrolidin-3-yl-phenyl)-4-trifluoromethyl-benzamide hydrochloride], the Ki in assay [1] (setting [3]) was 0.0011 µM; in assay [2] (setting [4]), 0.0036 µM.
With `Cc1cc(C(=O)Nc2ccc(C3CNCCO3)cc2)ccn1` (racemic) [Example 294, (RS)-2-Methyl-N-(4-(morpholin-2-yl)phenyl)isonicotinamide dihydrochloride], the inhibitory constant (Ki) in assay [1] (setting [3]) amounted to 1.18 µM; in assay [2] (setting [4]), 0.0226 µM.
With `CCc1ccc(C(=O)Nc2ccc([C@@H]3CCCNC3)cc2)cn1` [Example 297, (S)-6-Ethyl-N-(4-(piperidin-3-yl)phenyl)nicotinamide], the Ki amounted to 0.018 µM in assay [1] (setting [3]) and 0.0044 µM in assay [2] (setting [4]).
`CC(C(=O)Nc1ccc(C2CCCNC2)cc1)c1cccc(OC(F)(F)F)c1` (racemic) [Example 105, (RS)—N—((RS)-4-Piperidin-3-yl-phenyl)-2-(3-trifluoromethoxy-phenyl)-propionamide]: the Ki in assay [1] (setting [3]) amounted to 0.0296 µM; in assay [2] (setting [4]) it was 0.0135 µM.
In the case of `CC(C(=O)Nc1ccc(C2CCCNC2)cc1)c1ccc(Cl)cc1` (racemic) [Example 103, (RS)-2-(4-Chloro-phenyl)-N—((RS)-4-piperidin-3-yl-phenyl)-propionamide], the Ki in assay [1] (setting [3]) is 0.705 µM; in assay [2] (setting [4]), 0.0646 µM.
